Data reported in paper PMC6374954, “Design, synthesis, and biological evaluation of novel derivatives of dithiodiglycolic acid prepared via oxidative coupling of thiols” (Journal of Enzyme Inhibition and Medicinal Chemistry, 2019).
Read-outs that look alike come from different tables or passages of the source. Blank lines part the entries; values can stand above or below the molecule they belong to.

Experiments:
TrxR1 [1] = biological target: T1, TrxR1 (Homo sapiens, UniProt Q16881); test: TrxR inhibition assay (DTNB), SH-SY5Y cell lysate; assay type: biochemical; settings: for IC50: neuroblastoma (SHSY5Y) lysate, mean ± SEM (n = 3)
T1 construct: For TrxR assay, lysate from SH-SY5Y cells and rat liver were used; endogenous in cells; host or cells: SH-SY5Y human neuroblastoma cells (10,000 x g supernatant of the homogenate)
T1 sequence (Q16881 151-649 limits assumed): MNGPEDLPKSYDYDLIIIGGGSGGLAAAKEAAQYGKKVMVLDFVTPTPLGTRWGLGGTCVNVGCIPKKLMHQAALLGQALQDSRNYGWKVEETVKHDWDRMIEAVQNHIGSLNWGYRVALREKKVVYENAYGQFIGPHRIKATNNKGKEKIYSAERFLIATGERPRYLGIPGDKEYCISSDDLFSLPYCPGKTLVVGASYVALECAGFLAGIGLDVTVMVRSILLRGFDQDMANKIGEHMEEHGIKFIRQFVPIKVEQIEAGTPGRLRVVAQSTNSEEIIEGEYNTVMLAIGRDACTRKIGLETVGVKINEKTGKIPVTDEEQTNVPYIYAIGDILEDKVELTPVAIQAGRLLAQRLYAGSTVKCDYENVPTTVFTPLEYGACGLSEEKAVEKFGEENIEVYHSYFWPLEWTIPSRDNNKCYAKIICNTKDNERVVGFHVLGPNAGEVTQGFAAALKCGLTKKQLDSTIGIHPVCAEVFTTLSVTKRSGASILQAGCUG
Description: (§3) For TrxR assay, lysate from SH-SY5Y cells and rat liver were used. SHSY5Y cells were washed twice with phosphate buffer solution (PBS) and harvested from the flask with a scraper. Cells were homogenised in ice-cold 50 mM potassium phosphate buffer (pH 7.4), containing 1 mM EDTA, with Ultra Turrax T25 (Ikawerk, Janke and Kunkel Inc., Staufen, Germany). The homogenates were centrifuged at 10,000 × g for 15 min at 4 °C. The protein concentrations of the supernatants were determined using a Bio-Rad protein assay kit (Bio-Rad Laboratories, USA). TrxR activity was assayed using 5,5-dithio-bis-(2-nitrobenzoic acid) (DTNB, Sigma-Aldrich, USA) as substrate[21]. The reactions were run on a 96-well plates, final volume of 100 µl in 50 mM potassium phosphate buffer (pH 7.0), containing 50 µg of the cell lysate proteins, 1-mM EDTA, 50 mM KCl, 0.2 mg/ml bovine serum albumin, 0.25 mM NADPH (Acros Organics, USA). Reaction mixture was incubated for 15 min at room temperature in plate shaker (PST-60HL-4, BioSan, Riga, Latvia); afterwards DTNB was added to the total concentration of 2.5 mM. Enzyme kinetics was monitored on a Tecan Infinite1000 microplate reader, by measuring the increase in absorbance at 412 nm for 20 min. The background TrxR-independent reduction of DTNB in the cell lysates, as determined in the presence of aurothiomalate (200 µM), was subtracted from each value[22]. Reaction mixture with rat liver lysate contained 35 µg of proteins, 1 mM EDTA, 50 mM KCl, 0.2 mg/ml bovine serum albumin, 0.25 mM NADPH, and 2.5 mM DTNB. Reactions with rat liver lysate were run in the same manner as cell lysates.

TrxR1 [2] = biological target: T2, TrxR1 (Rattus norvegicus, UniProt O89049); test: TrxR inhibition assay (DTNB), rat liver (hepatocyte) lysate
T2 sequence (O89049 1-499): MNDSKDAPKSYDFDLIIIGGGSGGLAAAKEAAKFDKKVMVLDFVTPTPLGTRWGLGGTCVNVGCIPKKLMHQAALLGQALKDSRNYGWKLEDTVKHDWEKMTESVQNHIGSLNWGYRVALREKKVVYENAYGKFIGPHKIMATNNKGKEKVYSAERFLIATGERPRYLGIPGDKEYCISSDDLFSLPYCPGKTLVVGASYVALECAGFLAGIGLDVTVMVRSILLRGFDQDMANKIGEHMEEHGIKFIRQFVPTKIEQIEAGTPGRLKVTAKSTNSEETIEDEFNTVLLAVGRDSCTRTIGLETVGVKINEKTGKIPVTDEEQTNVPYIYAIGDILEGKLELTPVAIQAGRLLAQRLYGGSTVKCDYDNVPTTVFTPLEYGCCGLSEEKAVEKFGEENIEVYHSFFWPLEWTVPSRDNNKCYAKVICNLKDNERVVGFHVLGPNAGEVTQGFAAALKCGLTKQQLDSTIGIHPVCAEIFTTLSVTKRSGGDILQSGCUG
Description: as §3

TrxR1 [3] = biological target: T2, TrxR1
Description: as §3

[4] = Cytotoxicity assay (MTT), SH-SY5Y; assay type: cell-based, human; settings: human, SH-SY5Y neuroblastoma cells, SHSY5Y cells, mean ± SEM (n = 3)
Description: (§1) Human neuroblastoma cells (SH-SY5Y) were grown in 1:1 mixture of Eagle's Minimum Essential Medium and F12 Medium (Sigma) supplemented with 10% foetal bovine serum (Sigma). Human keratinocytes (HaCaT) were grown in DMEM, supplemented with 10% foetal bovine serum, 2 mM L-glutamine, 5000 U/ml penicillin, and 5 mg/ml streptomycin. Human glioblastoma cell (U87-MG) were grown in Minimum Essential Media (MEM), containing 10% foetal bovine serum, 2 mM L-glutamine, 5,000 U/ml penicillin, and 5 mg/ml streptomycin. All cell lines were obtained from American Type Culture Collection (ATCC, Rockville, MD). All cell lines were grown at 37 °C in a humidified 5% CO2 atmosphere.
(§2) Cells grown in 25 cm^2 tissue flasks were trypsinized, seeded into flat-bottomed adherent 96-well cell culture plates in appropriate medium (SH-SY5Y 12,000 cells/well, U87-MG 4000 cells/well, HaCaT 2000 cells/well) and incubated overnight; afterwards the cells were exposed to different concentrations of the tested compounds for 72 h. Cell viability was measured by MTT assay. Briefly, after incubation with the compounds, medium containing 0.2 mg/ml MTT was added. After incubation (3 h, 37 °C, 5% CO2), the MTT-containing medium was removed, and 200 µl of dimethyl sulfoxide (DMSO) was immediately added to each sample. The samples were assessed at 540 nm on LKB 5060–006 Microplate Reader (Vienna, Austria) microplate reader. The half-maximal inhibitory concentration (IC50) of each compound was calculated using Graph Pad Prism® 6.0 (GraphPad Software, Inc., USA).

[5] = Cytotoxicity assay (MTT), U87; assay type: cell-based, human; settings: human, U87-MG glioblastoma cells; U87 cells; 72 h; MTT; mean ± SEM (n = 3)
Description: as §1, §2

[6] = Cytotoxicity assay (MTT), HaCaT; assay type: cell-based, human; settings: human, HaCaT keratinocytes, HaCaT cells, mean ± SEM (n = 3)
Description: as §1, §2

SHSY5Y cells = test: Cytotoxicity assay (MTT), SH-SY5Y; assay type: cell-based, human; settings: 72 h, mean ± SEM (n = 3)
Description: as §1, §2

U87 cells = test: Cytotoxicity assay (MTT), U87; assay type: cell-based, human; settings: for CC50: U87 cells, 72 h, MTT, mean ± SEM (n = 3)
Description: as §1, §2

HaCaT cells = test: Cytotoxicity assay (MTT), HaCaT; assay type: cell-based, human; settings: 72 h, mean ± SEM (n = 3)
Description: as §1, §2

TrxR1 [7] = settings: cited from earlier work
TrxR = biological target: TrxR; parameters: method as in PMID 27977313; settings: read-out: Ki value toward the enzyme; cited from earlier work
[8] = read-out: TrxR IC50 Hepatocyte lysate, mean ± SEM (n = 3)
[9] = TrxR IC50 Hepatocyte lysate, mean ± SEM (n = 3)

Structure (SMILES): NC(=O)CSSCC(N)=O [Compound 11j]
- inhibitory activity against neuroblastoma (SHSY5Y) cell lysate (in words) (TrxR1 [1]): virtually no activity
- IC50 (TrxR1 [1]): > 200 µM
- IC50 (TrxR1 [2]; [8]): 90.4 ± 18.7 µM

- inhibitory activity against neuroblastoma (SHSY5Y) cell lysate (in words) (TrxR1 [1]): completely devoid of inhibitory activity
- IC50 (TrxR1 [1]): > 200 µM
- activity against liver cell lysate (in words) (TrxR1 [3]): completely devoid of inhibitory activity
Structure (SMILES): O=C([O-])CSSCC(=O)[O-].[Na+].[Na+] [Compound 15, 2,2′-disulfanediyldiacetic acid disodium salt, reference compound]

Structure (SMILES): O=C(CSSCC(=O)Nc1ccc(F)cc1)Nc1ccc(F)cc1 [Compound 11h]
- IC50 (TrxR1 [1]): > 200 µM
- IC50 (TrxR1 [2]; [8]): > 200 µM

- IC50 (TrxR1 [1]): 44.4 ± 15.1 µM
- IC50 (TrxR1 [2]; [9]): 45.6 ± 6.8 µM
Structure (SMILES): CCCNC(=O)CSSCC(=O)N1CCOCC1 [Compound 12a, 2-((2-Morpholino-2-oxoethyl)disulfanyl)-N-propylacetamide]
- CC50 at 72 h [4]: 176 ± 13.4 µM
- CC50 at 72 h [5]: 187 ± 15.9 µM
- CC50 at 72 h [6]: 71.8 ± 6.9 µM

Structure (SMILES): CCCNC(=O)CSSCC(=O)NCCC [Compound 11b]
- IC50 (TrxR1 [1]): > 200 µM
- CC50 (SHSY5Y cells): 220 ± 15.3 µM
- times more active against U87 cell line compared to the other three compounds (U87 cells; U87, versus 11d, 11g, 12a): 2–3 times
- CC50 (U87 cells): 54.6 ± 3.4 µM
- CC50 (HaCaT cells): 58.4 ± 5 µM
- IC50 (TrxR1 [2]; [8]): 26.5 ± 2.9 µM

Structure (SMILES): CN1C(=O)[C@]23CC4=CC=C[C@H](O)[C@H]4N2C(=O)[C@@]1(CO)SS3 [Compound 6, gliotoxin]
- Km (TrxR1 [7]; read-out: Km values): 16.9 µM

Structure (SMILES): CC(C)(C)NC(=O)CSSCC(=O)NC(C)(C)C [Compound 11g]
- inhibitory activity against neuroblastoma (SHSY5Y) cell lysate (in words) (TrxR1 [1]): virtually no activity
- IC50 (TrxR1 [1]): > 200 µM
- CC50 (SHSY5Y cells): 174 ± 18.3 µM
- CC50 (U87 cells): 125 ± 15.6 µM
- CC50 (HaCaT cells): 43 ± 2.9 µM
- IC50 (TrxR1 [2]; [8]): 22.2 ± 3.1 µM

- IC50 (TrxR1 [1]): > 200 µM
- IC50 (TrxR1 [2]; [9]): 170 ± 54.2 µM
Structure (SMILES): O=C(CSSCC(=O)N1CCCC1)N1CCCC1 [Compound 11a, 2,2′-Disulfanediylbis(1-(pyrrolidin-1-yl)ethan-1-one)]

Structure (SMILES): COc1ccc(NC(=O)CSSCC(=O)Nc2ccc(OC)cc2)cc1 [Compound 11i]
- IC50 (TrxR1 [1]): > 200 µM
- IC50 (TrxR1 [2]; [8]): > 200 µM

Structure (SMILES): CN1CCN(C(=O)CSSCC(=O)N2CCN(C)CC2)CC1 [Compound 11f]
- IC50 (TrxR1 [1]): > 200 µM
- IC50 (TrxR1 [2]; [8]): > 200 µM

- inhibitory activity against neuroblastoma (SHSY5Y) cell lysate (in words) (TrxR1 [1]): virtually no activity
- IC50 (TrxR1 [1]): > 200 µM
- IC50 (TrxR1 [2]; [9]): > 200 µM
Structure (SMILES): COC(=O)CSSCC(=O)OC [Compound 17, Dimethyl 2,2′-disulfanediyldiacetate]

Structure (SMILES): CCC(C)SSc1ncc[nH]1 (stereo not shown) [Compound 2]
- Ki (TrxR): 31 µM

Structure (SMILES): O=S(=O)(O)CCSSCCS(=O)(=O)O [Compound 4, disodium 2,2′-dithio-bis-ethane sulphonate]
- Km (TrxR1 [7]; TrxR substrate analogue, read-out: Km value): 72 µM

- inhibitory activity against neuroblastoma (SHSY5Y) cell lysate (in words) (TrxR1 [1]): virtually no activity
- IC50 (TrxR1 [1]): > 200 µM
- IC50 (TrxR1 [2]; [9]): > 200 µM
Structure (SMILES): O=C(O)CSSCC(=O)O [Compound 14, 2,2′-disulfanediyldiacetic acid, reference compound]

Structure (SMILES): O=C(CSSCC(=O)N1CCOCC1)N1CCOCC1 [Compound 11c]
- IC50 (TrxR1 [1]): 190 ± 78.4 µM
- IC50 (TrxR1 [2]; [8]): 182 ± 32.2 µM

Structure (SMILES): O=C(CSSCC(=O)NC1CC1)NC1CC1 [Compound 11d]
- IC50 (TrxR1 [1]): 63.6 ± 27.5 µM
- CC50 (SHSY5Y cells): 202 ± 12 µM
- CC50 (U87 cells): 180 ± 12.6 µM
- CC50 (HaCaT cells): 69 ± 3.4 µM
- IC50 (TrxR1 [2]; [8]): 34.7 ± 9.1 µM

Structure (SMILES): CN1C(=O)[C@@]23C[C@]4([C@]56C[C@@]78SS[C@@](CO)(C(=O)N7[C@H]5Nc5ccccc56)N(C)C8=O)c5ccccc5N[C@@H]4N2C(=O)[C@]1(CO)SS3 [Compound 5, chaetocin]
- Km (TrxR1 [7]; TrxR1, substrate-competitive inhibition profile, read-out: Km values): 4.6 µM

- IC50 (TrxR1 [1]): 186 ± 83.8 µM
- IC50 (TrxR1 [2]; [9]): > 200 µM
Structure (SMILES): COC(=O)CSSCC(=O)Nc1ccc(F)cc1 [Compound 13a, Methyl 2-((2-((4-fluorophenyl)amino)-2-oxoethyl)disulfanyl)acetate]

Structure (SMILES): COc1ccc(CNC(=O)CSSCC(=O)NCc2ccc(OC)cc2)cc1 [Compound 11e]
- IC50 (TrxR1 [1]): > 200 µM
- IC50 (TrxR1 [2]; [8]): > 200 µM
